What was measured:
U2OS cells [1] = assay: US Drug library screen: CRT-GFP, HMGB1-GFP, quinacrine; settings: 1 μM, 4 h / 24 h / 16 h
U2OS cells [2] = assay: CRT exposure by anti-CRT surface staining and FACS (Example 4); format: cell-based, human; settings: for effect of antioxidant on CRT exposure upon Digoxin and Digitoxin treatment: NAC and GSH pretreated U2OS cells; for CRT exposure: dose dependent fashion, nanomolar range
Description: (D) Cardiac glycosides at 1 μM have been analysed for CRT exposure by means of anti-CRT surface staining and FACS quantification.
(F) U2OS cells treated with the indicated doses of Digoxin and Digitoxin were analyzed for CRT exposure by means of FACS quantified surface staining.

MCA205 cells [3] = settings: Martins I et al, Oncogene 2010; cited from earlier work
MCA205 cells [4] = assay: In vivo anti-tumor vaccination with MitoC / Digoxin treated MCA205 cells; parameters: species or system mice; settings: for vaccination with cells treated with digoxin alone: single treatment
breast cancer = assay: Retrospective clinical study, digoxin during chemotherapy; format: in vivo, human
Description: (D) D1: Overall survival of 150 breast cancer patients. 50 digoxin cotreated patients are opposed by 100 non digoxin treated controls.
We retrospectively constructed a patient database using data obtained from Institut Gustave Roussy. The patients were divided into the digoxin receiving and into the control group. For each digoxin receiving patient two control patients with identical tumor grade and chemotherapeutic treatment have been chosen. All digoxin receiving patients were treated with digoxin while receiving chemotherapy. Age at diagnosis, pathological tumor size, lymph node involvement, tumor grade, hormone receptors, endocrine treatments, occurrence of events and follow-up were extracted from medical files and recorded in the database. After generation of the patient database statistical analyses were performed in a blinded fashion. Survival rates were estimated using the Kaplan-Meier method.

U2OS cells [5] = assay: HMGB1 release ELISA; format: cell-based, human; settings: 24 h, dose dependent fashion, nanomolar range
Description: U2OS cells were seeded in 6 well plates 24 h before the experiment. The medium was changed to fresh DMEM before the treatment was applied. Supernatants were collected at 24 h post treatment, dying tumor cells were removed by centrifugation and supernatants were collected and shock frozen in liquid nitrogen. Quantification of HMGB1 in the collected supernatants was performed by enzyme-linked immunosorbent assay according to the manufacturer's instructions.

U2OS cells [6] = assay: ATP release ENLITEN assay (Example 4); format: cell-based, human; settings: 15 h, dose dependent fashion, nanomolar range
Description: (H) ATP release was quantified by ENLITE 15 h after treatment in the supernatant of cells.
(§1) After cell death induction, extracellular ATP was measured by luciferin-based ENLITEN ATP Assay (Promega, Madison, USA) following the manufacturer's instructions. Intracellular ATP was measured using an ATP Assay kit (Calbiochem, Darmstadt, Germany) based on luciferin-luciferase conversion following the manufacturer's instructions. For assessment of the chemoluminescent signal, the plates were read in a Fluostar luminometer (BMG Labtech).

γδ T cells = assay: DC-tumor mixed lymphocyte cultures (IL-1β, IL-17A ELISA); format: cell-based, mouse; settings: 20 μg/ml IL-1RA
Description: (D) DX-treated MCA205 loaded DC/γδ T cell cross-talk was also performed in the presence of 20 μg/ml IL-1RA (Amgen) or anti-IL-23 or IL-23R neutralizing antibodies or 10 μg/ml IL-18BP or 20 μM CH-223191. IL-1β and IL-17A release was measured at 48 hrs in ELISA.
DC were propagated in Iscoves's medium (Sigma Aldrich) supplemented with J558 supernatant, 100 UI/ml Penicillin, 100 μg/ml Streptomycin, 2 mM L-glutamine, 50 μM 2-mercaptoethanol (Sigma), 10% heat-inactivated and filtered, 10% FCS and 40 ng/ml GM-CSF. DC were used between day 8 and 12 when the proportion of CD11c/MHC class II+ cells was >80%. In mixed cocultures, DC were seeded at 10^5/100 μl/well in U bottom 96 well plates. Tumor cells were treated with 25 μM DX or 2 μM MTX for 16 hrs, washed in PBS and added into these wells at 7.5×10^5/100 μl/well. 2×10^4/50 μl γδ T cells were added into the wells 12 hrs later. Supernatant was collected 48 hrs later.

MCA205 cells [7] = assay: In vivo anti-tumor vaccination with treated MCA205 cells (Example 3); settings: s.c. injection, rechallenge with live tumor cells
Description: (F) MCA205 cells have been used for tumor vaccination in vivo. […] The mice have been rechallenged after 6 days with living cells and the tumor growth is depicted in the survival plot (n=10).
Tumor growth was evaluated for at least 50 days.

[8] = test system: U2OS cells stably expressing CRT-GFP; assay: CRT-GFP redistribution (granularity, nuclear shape) by automated microscopy; ICCB library screen; format: cell-based, human
Description: The data is depicted as mean±s.e.m. of quadruplicates from a representative experiment. (C) Immunofluorescene was conducted on CRT-GFP expressing cells by means of staining with anti-CRT antibody and subsequent confocal image acquisition. (D) CRT has been cloned in frame n-terminal to a HaloTag® sequence followed by a KDEL ER retention signal. (E) The impermeable HaloTag® ligand forms covalent bonds exclusively with surface exposed HaloTag®-CRT fusion protein, whereas intracellular HaloTag®-CRT remains undetected.
Compounds from the ICCB known bioactive compounds library have been tested for their capacity to induce CRT-exposure. […] The cells were incubated for 4 h and were acquired by means of automated microscopy. The data is depicted as dot plots and representative images (B).
After washing with PBS 4 viewfields per well were acquired by means of a BD pathway 855 automated microscope.

eIF2α = assay: Immunoblotting of eIF2α / PERK phosphorylation; format: cell-based
From the text: (E) The phosphorylation status of eIF2α has been assessed by immunoblotting against the phosphoneoepitope Ser51 of eIF2α by means of a monoclonal antibody. A polyclonal antibody has been used to visualize whole eIF2α protein levels.

U2OS cells [9] = assay: Analysis of surface exposed CRT (HaloTag ligand, anti-CRT immune staining)
U2OS cells [10] = format: cell-based
Description: The data is depicted as representative images (A) and (B) normalized Bax-GFP granularity values.
The data represents mean±s.e.m. of quadruplicates from a representative experiment. […] 16 h after treatment, cell death was monitored by simultaneous staining with 3,3 dihexyloxacarbocyanine iodide (DiOC6(3)) and propidium iodide (PI), and the percentage of dying (DiOC6(3)^low PI^−, open bars) and dead (DiOC6(3)^low PI^+, closed bars) cells was determined by cytofluorometry.
Cell death was quantified by cytofluorometric analysis using a FACS Vantage (Becton Dickinson, Mountain View, USA) as described previously (REF). Thus, cells were stained with 40 nM 3,3 dihexyloxacarbocyanine iodide (DiOC6(3); Molecular Probes, Eugene, Oreg., USA) for 30 min at 37° C. and concomitantly with 1 μg/ml propidium iodide (PI; Sigma Aldrich) for 30 min at 37° C. to determine the mitochondrial transmembrane potential. Data were statistically evaluated using CellQuest Pro software (Becton Dickinson, Mountain View, USA).

U2OS cells [11] = assay: ATP release assays (quinacrine, luciferin-based); format: cell-based, human; settings: 16 h post-treatment, intracellular and extracellular ATP
Description: In short, cells were labeled with 1 μM quinacrine in Krebs-Ringer solution (125 mM NaCl, 5 mM KCl, 1 mM MgSO4, 0.7 mM KH2PO4, 2 mM CaCl2, 6 mM glucose and 25 mM Hepes, pH 7.4) for 30 min at 37° C.
After incubation in quinacrine solution (as described above), cells were rinsed and resuspended in PBS containing 1 μg/ml PI. The samples were analyzed by means of a FACS Vantage (Becton Dickinson) and the data was statistically evaluated using the CellQuest Pro software (BD Biosciences).
as §1

LN resident γδ T cells = assay: Cytokine stimulation of LN-derived γδ T cells (IL-17); format: cell-based, mouse
Description: (A-B) Cocultures of naïve LNs derived γδ T (A-B) or TCR δ^−T (A) cells in the presence of recombinant mouse cytokines (1 μg/ml IL-1β or/and IL-23, 5 μg/ml TGF-β, 10 μg/ml IL-6) (A) with or without TCR cross-linking with anti-CD3ε mAb pre-coated plates (5 μg/ml, Clone 145-2C11) (B).
Naïve C57Bl/6 mice aged between 8-10 weeks were sacrificed and the skin-draining lymph nodes (LNs) including inguinal, popliteal, superficial cervical, axillary and brachial LNs were collected. LNs were squeezed with tweezers gently in digesting buffer, kept at 37° C. for 20 min and then pass through […] cell strainer to get single cell suspension. Dead cells were removed using Dead Cell Removal Kit (Miltenyi Biotec) before purifying γδ T cells with TCRγ/δ^+ T Cell Isolation Kit (Miltenyi Biotec). An autoMACS™ Separator was used with the recommended programs. Purity of this isolation normally reached 95%. The TCR δ^− CD3^+ cells fraction was also collected from the final separation step and was called ‘non γδ T’ cells for some experiments. Day 2 after DX or PBS treatment, 2.5×10^5 cells were injected directly into the tumor with insulin syringes in adoptive transfer setting.

COc1cccc2c1C(=O)c1c(O)c3c(c(O)c1C2=O)C[C@@](O)(C(=O)CO)C[C@@H]3O[C@H]1C[C@H](N)[C@@H](O)[C@H](C)O1 [epirubicin]
rank in screen for exposing CRT and emitting HMGB1 and ATP (U2OS cells [1]): most potent in exposing CRT, and emitting HMGB1 and ATP

CC(=O)N[C@@H](CS)C(=O)O [NAC]
effect of antioxidant on CRT exposure upon Digoxin and Digitoxin treatment (U2OS cells [2]): significantly diminished CRT exposure

tunicamycin
immunogenic cell death when combined with cisplatin (MCA205 cells [3]): could induce immunogenic cell death when combined with cisplatin

C[C@H]1O[C@@H](O[C@H]2[C@@H](O)C[C@H](O[C@H]3[C@@H](O)C[C@H](O[C@H]4CC[C@@]5(C)[C@H](CC[C@@H]6[C@@H]5C[C@@H](O)[C@]5(C)[C@@H](C7=CC(=O)OC7)CC[C@]65O)C4)O[C@@H]3C)O[C@@H]2C)C[C@H](O)[C@@H]1O [digoxin]
vaccinating effect, MCA cells cotreated with digoxin and MitoC (MCA205 cells [4]; 20 μM MitoC with 30 μM Digoxin O/N, immunocompetent mice, rechallenge after 6 days): kept living cells of the same kind from forming a tumor
vaccination with cells treated with digoxin alone (MCA205 cells [4]): led to tumor formation at the vaccination site
vaccination with cells treated with digoxin alone (MCA205 cells [4]; listed as Digoxin): did not preclude the living cells from forming a tumor after rechallenge
overall survival effect of digoxin, anthracyclin based chemotherapy subgroup (breast cancer; 20 digoxin cotreated vs 40 controls): completely disappears
overall survival of patients that received digoxin during chemotherapy (breast cancer; 50 digoxin cotreated vs 100 controls): increased overall survival
HMGB1 release (U2OS cells [5]): HMGB1 release
ATP release (U2OS cells [6]): ATP release
CRT exposure (U2OS cells [2]): induce CRT exposure

IL-1RA: IL-1R1/IL-1β antagonist (Amgen)
IL-1β production in DC/γδ T cell co-culture (γδ T cells): not modified
DC/γδ T cell cross-talk (IL-17 production) in the presence of dying cells (γδ T cells; DX-treated MCA205 loaded DC, 48 hrs): entirely abrogated the DC/γδ T cell cross-talk

C[C@H]1O[C@@H](O[C@H]2[C@@H](O)C[C@H](O[C@H]3[C@@H](O)C[C@H](O[C@H]4CC[C@@]5(C)[C@H](CC[C@@H]6[C@@H]5CC[C@]5(C)[C@@H](C7=CC(=O)OC7)CC[C@]65O)C4)O[C@@H]3C)O[C@@H]2C)C[C@H](O)[C@@H]1O [digitoxin]
HMGB1 release (U2OS cells [5]): HMGB1 release
ATP release (U2OS cells [6]): ATP release
CRT exposure (U2OS cells [2]): induce CRT exposure

N[C@@H](CCC(=O)N[C@@H](CS)C(=O)NCC(=O)O)C(=O)O [GSH]
effect of antioxidant on CRT exposure upon Digoxin and Digitoxin treatment (U2OS cells [2]): significantly diminished CRT exposure

[NH2][Pt]([NH2])([Cl])[Cl] [CDDP, cisplatin]
protective anticancer immune response after vaccination with drug-treated MCA205 cells (MCA205 cells [7]): inefficient in inducing a protective anticancer immune response
CRT-GFP granularity (relocation to peripheral granular distribution) ([8]; 1 μM MTX, 150 μM CDDP, 300 μM OXP): not after treatment with CDDP
chromatin condensation (nuclear apoptosis) ([8]; as efficiently as MTX or OXP): able to induce chromatin condensation
eIF2α phosphorylation on serine 51 (eIF2α; phospho-neoepitope-specific antibody): unable to activate
activating phosphorylation of PERK (eIF2α; shortly after treatment): not CDDP
surface exposure of CRT-HaloTag (U2OS cells [9]; cell-impermeable HaloTag ligand, microscopy and cytofluorometry): failed to induce the surface exposure
surface immunofluorescence staining of CRT (U2OS cells [9]; non-permeabilized CRT-GFP cells): no immunodetectable CRT was found on the surface
IC50 (U2OS cells [10]; short-term experiments, loss of the mitochondrial transmembrane potential ΔΨm, read-out: IC50, imminent cell death): ~150 µM
mitochondrial perturbations (ΔΨm dissipation, Bax-GFP relocation) (U2OS cells [10]; used at their IC50): induced similar mitochondrial perturbations
ATP release (U2OS cells [11]): induced ATP release

TGF-β
IL-17 production by LN-resident γδ T cells in response to recombinant cytokines (LN resident γδ T cells): failed to produce IL-17

B1: IL-6: recombinant mouse cytokine (protein, UniProt P08505 25-211, looked up)
Interleukin-6: FPTSQVRRGDFTEDTTPNRPVYTTSQVGGLITHVLWEIVEMRKELCNGNSDCMNNDDALAENNLKLPEIQRNDGCYQTGYNQEICLLKISSGLLEYHSYLEYMKNNLKDNKKDKARVLQRDTETLIHIFNQEVKDLHKIVLPTPISNALLTDKLESQKEWLRTKTIQFILKSLEEFLKVTLRSTRQT
IL-17 production by LN-resident γδ T cells in response to recombinant cytokines (LN resident γδ T cells): failed to produce IL-17

— patent US8865653B2, “Method of treatment for immunogenic treatment resistant cancer” (Institut Gustave Roussy, priority 2010, dated 2014)
